Data: PubChem BioAssay AID248 (DTP/NCI, 2004)
Several values for one entry are separate records, joined by “and”; a condition that tells them apart may be missing. Identical values can stand only once. Inconclusive results and toxic doses are left out.

Tested on: L1210 leukemia ip in BDF1 mice, survival T/C
Assay: NCI In Vivo Anticancer Drug Screen. Data for tumor model L1210 Leukemia (intraperitoneal) in B6D2F1 (BDF1) mice
Details: endpoint: mean survival time, higher = longer survival
Outline: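 Ratio derived from survival: compound-dosed mice over vehicle-dosed mice, all bearing a transplantable tumor.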

[1] = dose: 100.0 mg/kg/injection, schedule: Q01DX009 (ip), vehicle: Klucel (hydroxypropylcellulose) (HPC)
[2] = dose: 100.0 mg/kg/injection, schedule: Q04DX002 (ip), vehicle: Klucel (hydroxypropylcellulose) (HPC)
[3] = dose: 200.0 mg/kg/injection, schedule: Q01DX009 (ip), vehicle: Klucel (hydroxypropylcellulose) (HPC)
[4] = dose: 400.0 mg/kg/injection, schedule: Q01DX009 (ip), vehicle: Klucel (hydroxypropylcellulose) (HPC)
[5] = dose: 50.0 mg/kg/injection, schedule: Q01DX009 (ip), vehicle: saline
[6] = dose: 100.0 mg/kg/injection, schedule: Q01DX009 (ip), vehicle: saline
[7] = dose: 100.0 mg/kg/injection, schedule: Q04DX003 (ip), vehicle: saline with Tween-80
[8] = dose: 200.0 mg/kg/injection, schedule: Q01DX009 (ip), vehicle: saline
[9] = dose: 200.0 mg/kg/injection, schedule: Q04DX003 (ip), vehicle: saline with Tween-80
[10] = dose: 400.0 mg/kg/injection, schedule: Q04DX003 (ip), vehicle: saline with Tween-80
[11] = dose: 100.0 mg/kg/injection, schedule: Q01DX009 (ip), vehicle: saline with Tween-80
[12] = dose: 200.0 mg/kg/injection, schedule: Q01DX009 (ip), vehicle: saline with Tween-80
[13] = dose: 100.0 mg/kg/injection, schedule: Q01DX001 (ip), vehicle: saline
[14] = dose: 200.0 mg/kg/injection, schedule: Q01DX001 (ip), vehicle: saline
[15] = dose: 400.0 mg/kg/injection, schedule: Q01DX009 (ip), vehicle: saline with Tween-80

Question: For CCc1ccccc1NC(=O)Nc1cc(C)ccn1, which T/C [1] is on record?
Answer: 102 % of control

Question: What about the T/C [2] of the same compound?
Answer: 102 % of control

Question: And the T/C [3]?
Answer: 107 % of control

Question: What about the T/C (dose: 200.0 mg/kg/injection, schedule: Q04DX002 (ip), vehicle: Klucel (hydroxypropylcellulose) (HPC)) of the same compound?
Answer: 102 % of control

Question: What about the T/C [4] of the same compound?
Answer: 102 % of control

Question: And the T/C (dose: 400.0 mg/kg/injection, schedule: Q04DX002 (ip), vehicle: Klucel (hydroxypropylcellulose) (HPC))?
Answer: 106 % of control

Question: For NC(Cn1ccc(=O)c(O)c1)C(=O)O (configuration not stated), which T/C [5] is on record?
Answer: 105 % of control

Question: What about the T/C (dose: 75.0 mg/kg/injection, schedule: Q04DX003 (ip), vehicle: saline) of the same compound?
Answer: 103 % of control

Question: What about the T/C [6] of the same compound?
Answer: 102 % of control

Question: What about the T/C [7] of the same compound?
Answer: 95 % of control

Question: And the T/C (dose: 111.0 mg/kg/injection, schedule: Q01DX Z (ip), vehicle: saline)?
Answer: 92 % of control

Question: And the T/C (dose: 150.0 mg/kg/injection, schedule: Q04DX003 (ip), vehicle: saline)?
Answer: 92 % of control

Question: What about the T/C (dose: 178.0 mg/kg/injection, schedule: Q01DX Z (ip), vehicle: saline) of the same compound?
Answer: 95 % of control

Question: What about the T/C [8] of the same compound?
Answer: 102 % of control

Question: What about the T/C [9] of the same compound?
Answer: 94 % of control

Question: What about the T/C (dose: 267.0 mg/kg/injection, schedule: Q01DX Z (ip), vehicle: saline) of the same compound?
Answer: 108 % of control

Question: What about the T/C (dose: 300.0 mg/kg/injection, schedule: Q04DX003 (ip), vehicle: saline) of the same compound?
Answer: 90 % of control

Question: And the T/C (dose: 400.0 mg/kg/injection, schedule: Q01DX Z (ip), vehicle: saline)?
Answer: 93 % of control

Question: What about the T/C [10] of the same compound?
Answer: 100 % of control

Question: And the T/C (dose: 800.0 mg/kg/injection, schedule: Q01DX009 (ip), vehicle: saline)?
Answer: 111 % of control

Question: For C#CC1(O)CCCC(C)C1 (configuration not stated), which T/C [11] is on record?
Answer: 102 % of control

Question: And the T/C [12]?
Answer: 97 % of control

Question: For CC1(C)CCC(NC(=O)N(CCF)N=O)CC1, which T/C (dose: 9.0 mg/kg/injection, schedule: Q01DX001 (ip), vehicle: other) is on record?
Answer: 115 % of control

Question: What about the T/C (dose: 13.0 mg/kg/injection, schedule: Q01DX001 (ip), vehicle: other) of the same compound?
Answer: 122 % of control

Question: And the T/C (dose: 37.0 mg/kg/injection, schedule: Q01DX001 (ip), vehicle: other)?
Answer: 188 % of control

Question: And the T/C (dose: 50.0 mg/kg/injection, schedule: Q01DX001 (ip), vehicle: other)?
Answer: 352 % of control

Question: And the T/C (dose: 75.0 mg/kg/injection, schedule: Q01DX001 (ip), vehicle: other)?
Answer: 352 % of control

Question: CCC(N)CO (configuration not stated) was tested. Which T/C [13] did it give?
Answer: 97 % of control

Question: What about the T/C [14] of the same compound?
Answer: 106 % of control

Question: O=C(Nc1ccc(Cl)c([N+](=O)[O-])c1)OCCOc1ccccc1 was tested. Which T/C [11] did it give?
Answer: 101 % of control

Question: And the T/C [7]?
Answer: 110 % of control

Question: And the T/C [12]?
Answer: 110 % of control

Question: What about the T/C [9] of the same compound?
Answer: 105 % of control

Question: What about the T/C [15] of the same compound?
Answer: 106 % of control

Question: And the T/C [10]?
Answer: 100 % of control

Question: Which T/C (dose: 75.0 mg/kg/injection, schedule: Q01DX001 (ip), vehicle: saline) does the source give for CCOC(=O)C1CCCCN1 (configuration not stated) here?
Answer: 91 % of control

Question: And the T/C (dose: 150.0 mg/kg/injection, schedule: Q01DX001 (ip), vehicle: saline)?
Answer: 91 % of control

Question: What does the source list for CCOC(=O)C(c1ccccc1)N(c1ccccc1)S(=O)(=O)c1ccc(C)cc1 (configuration not stated)?
Answer: T/C (dose: 100.0 mg/kg/injection, schedule: Q01DX001 (ip), vehicle: other): 116 % of control; T/C (dose: 200.0 mg/kg/injection, schedule: Q01DX001 (ip), vehicle: other): 98 % of control; T/C (dose: 400.0 mg/kg/injection, schedule: Q01DX001 (ip), vehicle: other): 101 % of control

Question: How did the T/C [13] turn out when CCN(CC)c1ccc(N=C2C=C(C(=O)Nc3ccccc3OC)C(=O)c3ccccc32)c(C)c1 was run?
Answer: 102 % of control

Question: What about the T/C [14] of the same compound?
Answer: 105 % of control

Question: And the T/C (dose: 400.0 mg/kg/injection, schedule: Q01DX001 (ip), vehicle: saline)?
Answer: 96 % of control

Question: What does the source list for CCC1(CC)C(=O)NC(=NCCCC(N)C(=O)O)NC1=O (configuration not stated)?
Answer: T/C (dose: 75.0 mg/kg/injection, schedule: Q01DX001 (ip), vehicle: carboxymethylcellulose (CMC)): 106 % of control; T/C (dose: 150.0 mg/kg/injection, schedule: Q01DX001 (ip), vehicle: carboxymethylcellulose (CMC)): 109 % of control

Question: For CCCC(=O)Nc1ccc([N+](=O)[O-])cc1OC, which T/C [11] is on record?
Answer: 105 % of control

Question: And the T/C [12]?
Answer: 94 % of control

Question: What about the T/C [15] of the same compound?
Answer: 94 % of control

Question: For CC1CN1CCS(=O)(=O)CCN1CC1C (configuration not stated), which T/C (dose: 0.3 mg/kg/injection, schedule: Q01DX015 (ip), vehicle: carboxymethylcellulose (CMC)) is on record?
Answer: 95 % of control

Question: And the T/C (dose: 0.6 mg/kg/injection, schedule: Q01DX015 (ip), vehicle: carboxymethylcellulose (CMC))?
Answer: 101 % of control

Question: And the T/C (dose: 1.2 mg/kg/injection, schedule: Q01DX015 (ip), vehicle: carboxymethylcellulose (CMC))?
Answer: 109 % of control

Question: And the T/C (dose: 1.25 mg/kg/injection, schedule: Q01DX015 (ip), vehicle: carboxymethylcellulose (CMC))?
Answer: 101 % of control

Question: What about the T/C (dose: 2.5 mg/kg/injection, schedule: Q01DX015 (ip), vehicle: carboxymethylcellulose (CMC)) of the same compound?
Answer: 103 % of control and 110 % of control

Question: And the T/C (dose: 3.1 mg/kg/injection, schedule: Q01DX015 (ip), vehicle: saline)?
Answer: 102 % of control

Question: What about the T/C (dose: 4.6 mg/kg/injection, schedule: Q01DX015 (ip), vehicle: saline) of the same compound?
Answer: 102 % of control

Question: What about the T/C (dose: 5.0 mg/kg/injection, schedule: Q01DX015 (ip), vehicle: carboxymethylcellulose (CMC)) of the same compound?
Answer: 101 % of control

Question: What about the T/C (dose: 7.0 mg/kg/injection, schedule: Q01DX015 (ip), vehicle: saline) of the same compound?
Answer: 94 % of control

Question: And the T/C (dose: 10.0 mg/kg/injection, schedule: Q01DX015 (ip), vehicle: carboxymethylcellulose (CMC))?
Answer: 100 % of control and 112 % of control

Question: What about the T/C (dose: 10.0 mg/kg/injection, schedule: Q01DX015 (ip), vehicle: saline) of the same compound?
Answer: 100 % of control

Question: And the T/C (dose: 20.0 mg/kg/injection, schedule: Q01DX015 (ip), vehicle: carboxymethylcellulose (CMC))?
Answer: 108 % of control

Question: And the T/C (dose: 40.0 mg/kg/injection, schedule: Q01DX015 (ip), vehicle: carboxymethylcellulose (CMC))?
Answer: 114 % of control

Question: What does the source list for Cc1ccc(NC(=O)NCCCl)cc1?
Answer: T/C (dose: 50.0 mg/kg/injection, schedule: Q01DX001 (ip), vehicle: carboxymethylcellulose (CMC)): 97 % of control; T/C (dose: 100.0 mg/kg/injection, schedule: Q01DX001 (ip), vehicle: carboxymethylcellulose (CMC)): 97 % of control; T/C (dose: 200.0 mg/kg/injection, schedule: Q01DX001 (ip), vehicle: carboxymethylcellulose (CMC)): 113 % of control; T/C (dose: 400.0 mg/kg/injection, schedule: Q01DX001 (ip), vehicle: carboxymethylcellulose (CMC)): 100 % of control

Question: COc1cc(Cn2cccc2/C=C(\C#N)C(N)=O)cc(OC)c1 was tested. Which T/C (dose: 25.0 mg/kg/injection, schedule: Q04DX002 (ip), vehicle: Klucel (hydroxypropylcellulose) (HPC)) did it give?
Answer: 94 % of control

Question: And the T/C (dose: 50.0 mg/kg/injection, schedule: Q04DX002 (ip), vehicle: Klucel (hydroxypropylcellulose) (HPC))?
Answer: 97 % of control

Question: And the T/C [2]?
Answer: 105 % of control

Question: With c1ccc2cc(C3OCC4(CCCCC4)CO3)ccc2c1 as the compound, how does the T/C (dose: 100.0 mg/kg/injection, schedule: Q01DX001 (ip), vehicle: Klucel (hydroxypropylcellulose) (HPC)) read?
Answer: 96 % of control

Question: What about the T/C (dose: 200.0 mg/kg/injection, schedule: Q01DX001 (ip), vehicle: Klucel (hydroxypropylcellulose) (HPC)) of the same compound?
Answer: 100 % of control

Question: And the T/C (dose: 400.0 mg/kg/injection, schedule: Q01DX001 (ip), vehicle: Klucel (hydroxypropylcellulose) (HPC))?
Answer: 100 % of control

Question: What does the source list for C=COC(=O)N(C)C?
Answer: T/C [5]: 89 % of control; T/C (dose: 50.0 mg/kg/injection, schedule: Q04DX003 (ip), vehicle: acetone): 98 % of control; T/C [13]: 96 % of control; T/C [6]: 94 % of control; T/C (dose: 100.0 mg/kg/injection, schedule: Q04DX003 (ip), vehicle: acetone): 96 % of control; T/C [14]: 107 % of control; T/C [8]: 95 % of control; T/C (dose: 200.0 mg/kg/injection, schedule: Q04DX003 (ip), vehicle: acetone): 95 % of control

Question: With Cc1ccc(C(c2ccc(C)cc2)C(Cl)(Cl)Cl)cc1 as the compound, how does the T/C (dose: 100.0 mg/kg/injection, schedule: Q01DX001 (ip), vehicle: saline sonified) read?
Answer: 93 % of control

Question: And the T/C (dose: 200.0 mg/kg/injection, schedule: Q01DX001 (ip), vehicle: saline sonified)?
Answer: 96 % of control

Question: And the T/C (dose: 400.0 mg/kg/injection, schedule: Q01DX001 (ip), vehicle: saline sonified)?
Answer: 88 % of control

Question: What does the source list for Cc1ccc([N+](=O)[O-])cc1NC(=O)Nc1cccc(C(F)(F)F)c1?
Answer: T/C (dose: 25.0 mg/kg/injection, schedule: Q01DX009 (ip), vehicle: Klucel (hydroxypropylcellulose) (HPC)): 102 % of control; T/C (dose: 50.0 mg/kg/injection, schedule: Q01DX009 (ip), vehicle: Klucel (hydroxypropylcellulose) (HPC)): 92 % of control; T/C [1]: 86 % of control; T/C [3]: 87 % of control; T/C [4]: 87 % of control
